Test results taken from publication PMC10418366, “Fighting Celiac Disease: Improvement of pH Stability of Cathepsin L In Vitro by Computational Design” (International Journal of Molecular Sciences, 2023).

Biological target: T1, rTcCathL1 (Tribolium castaneum cathepsin L) (Tribolium castaneum, UniProt D6X519)
T1 construct: gene AUGUSTUS-3.0.2_01950; mature enzyme after autocatalytic processing (pH 4.0, 37 °C) of recombinant proenzyme secreted by Pichia pastoris GS115 (pPICZalphaA); signal peptide and propeptide total 115 residues (stated for the model)
Assay: active-site titration with irreversible inhibitor
Type: biochemical
Settings: covalent, 37 °C assay with Glp-Phe-Gln-pNA, 6 mM cysteine, 1 mM EDTA

T1 sequence (D6X519 116-328): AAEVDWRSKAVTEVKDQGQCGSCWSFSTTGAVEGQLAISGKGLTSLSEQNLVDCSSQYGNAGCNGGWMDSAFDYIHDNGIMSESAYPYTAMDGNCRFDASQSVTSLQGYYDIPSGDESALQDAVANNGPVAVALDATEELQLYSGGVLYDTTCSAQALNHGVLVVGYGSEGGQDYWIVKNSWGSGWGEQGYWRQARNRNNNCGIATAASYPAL

`CC(C)C[C@H](NC(=O)[C@H]1O[C@@H]1C(=O)O)C(=O)NCCCCN=C(N)N` [E-64] was tested, and the “active-site titration with irreversible inhibitor” value was “titration of peptidase active sites with the irreversible inhibitor E-64”.
